{
  "source": "PubChem BioAssay AID1745844",
  "about": "(Carcinogenic Potency Database (CPDB), 2022)",
  "test_system": "rodent lifetime carcinogenesis bioassay, tumor incidence TD50",
  "experiment": "chronic cancer bioassays in animals – CPDB, compiled studies (AID 1745844)",
  "note": "Several values for one entry are separate records, joined by “and”; a condition that tells them apart may be missing. Equal entries are not always repeated. Activity calls are given as the source filed them. How the calls were made is not given here.",
  "data": [
    {"smiles": "O=c1ccc2ccccc2o1", "values": [
      {"measurement": "TD50", "setting": "hamster, strain Syrian Golden, females, in feed, site: any site (literature study), lesion: several types, types named in the paper, dosed 95 weeks, study length 104 weeks", "value": "5520 mg/kg/day (inactive)"},
      {"measurement": "carcinogen call", "setting": "hamster, strain Syrian Golden, females, in feed, site: liver, lesion: one or several types, types not named, dosed 95 weeks, study length 104 weeks", "value": "negative (inactive)"},
      {"measurement": "TD50", "setting": "hamster, strain Syrian Golden, males, in feed, site: any site (literature study), lesion: several types, types named in the paper, dosed 104 weeks, study length 104 weeks", "value": "603 mg/kg/day (inactive)"},
      {"measurement": "carcinogen call", "setting": "hamster, strain Syrian Golden, males, in feed, site: liver, lesion: one or several types, types not named, dosed 104 weeks, study length 104 weeks", "value": "negative (inactive)"},
      {"measurement": "TD50", "setting": "mouse, strain B6C3F1, females, by gavage, site: any site (literature study), lesion: several types, types named in the paper, dosed 103 weeks, study length 104 weeks", "value": 198, "unit": "mg/kg/day"},
      {"measurement": "TD50", "setting": "mouse, strain B6C3F1, females, by gavage, site: forestomach, lesion: squamous-cell carcinoma + squamous-cell papilloma, dosed 103 weeks, study length 104 weeks", "value": 42000, "unit": "mg/kg/day"},
      {"measurement": "TD50", "setting": "mouse, strain B6C3F1, females, by gavage, site: forestomach, lesion: squamous-cell papilloma, dosed 103 weeks, study length 104 weeks", "value": 12200, "unit": "mg/kg/day"},
      {"measurement": "TD50", "setting": "mouse, strain B6C3F1, females, by gavage, site: liver + lung, lesion: hepatocellular adenoma + hepatocellular carcinoma + alveolar/bronchiolar adenoma + alveolar/bronchiolar carcinoma, dosed 103 weeks, study length 104 weeks", "value": 85.5, "unit": "mg/kg/day"},
      {"measurement": "TD50", "setting": "mouse, strain B6C3F1, females, by gavage, site: liver, lesion: hepatocellular adenoma + hepatoblastoma + hepatocellular carcinoma, dosed 103 weeks, study length 104 weeks", "value": 65.7, "unit": "mg/kg/day"},
      {"measurement": "TD50", "setting": "mouse, strain B6C3F1, females, by gavage, site: liver, lesion: hepatocellular adenoma + hepatocellular carcinoma, dosed 103 weeks, study length 104 weeks", "value": 65.7, "unit": "mg/kg/day"},
      {"measurement": "TD50", "setting": "mouse, strain B6C3F1, females, by gavage, site: liver, lesion: hepatocellular adenoma, dosed 103 weeks, study length 104 weeks", "value": 72.8, "unit": "mg/kg/day"},
      {"measurement": "TD50", "setting": "mouse, strain B6C3F1, females, by gavage, site: lung, lesion: alveolar/bronchiolar adenoma + alveolar/bronchiolar carcinoma, dosed 103 weeks, study length 104 weeks", "value": 135, "unit": "mg/kg/day"},
      {"measurement": "TD50", "setting": "mouse, strain B6C3F1, females, by gavage, site: lung, lesion: alveolar/bronchiolar adenoma, dosed 103 weeks, study length 104 weeks", "value": 179, "unit": "mg/kg/day"},
      {"measurement": "TD50", "setting": "mouse, strain B6C3F1, females, by gavage, site: lung, lesion: alveolar/bronchiolar carcinoma, dosed 103 weeks, study length 104 weeks", "value": 825, "unit": "mg/kg/day"},
      {"measurement": "TD50", "setting": "mouse, strain B6C3F1, males, by gavage, site: all sites, lesion: histiocytic sarcoma + malignant lymphoma, histiocytic type + malignant lymphoma, mixed type + malignant lymphoma, lymphocytic, dosed 103 weeks, study length 104 weeks", "value": 600, "unit": "mg/kg/day"},
      {"measurement": "TD50", "setting": "mouse, strain B6C3F1, males, by gavage, site: any site (literature study), lesion: several types, types named in the paper, dosed 103 weeks, study length 104 weeks", "value": 461, "unit": "mg/kg/day"},
      {"measurement": "TD50", "setting": "mouse, strain B6C3F1, males, by gavage, site: forestomach, lesion: squamous-cell carcinoma + squamous-cell papilloma, dosed 103 weeks, study length 104 weeks", "value": 152, "unit": "mg/kg/day"},
      {"measurement": "TD50", "setting": "mouse, strain B6C3F1, males, by gavage, site: forestomach, lesion: squamous-cell papilloma, dosed 103 weeks, study length 104 weeks", "value": 179, "unit": "mg/kg/day"},
      {"measurement": "TD50", "setting": "mouse, strain B6C3F1, males, by gavage, site: liver, lesion: hepatoblastoma, dosed 103 weeks, study length 104 weeks", "value": 632, "unit": "mg/kg/day"},
      {"measurement": "TD50", "setting": "mouse, strain B6C3F1, males, by gavage, site: lung, lesion: alveolar/bronchiolar adenoma + alveolar/bronchiolar carcinoma, dosed 103 weeks, study length 104 weeks", "value": 241, "unit": "mg/kg/day"},
      {"measurement": "TD50", "setting": "mouse, strain B6C3F1, males, by gavage, site: lung, lesion: alveolar/bronchiolar adenoma, dosed 103 weeks, study length 104 weeks", "value": 265, "unit": "mg/kg/day"},
      {"measurement": "TD50", "setting": "mouse, strain B6C3F1, males, by gavage, site: pancreatic islets, lesion: islet-cell adenoma, dosed 103 weeks, study length 104 weeks", "value": 1310, "unit": "mg/kg/day"},
      {"measurement": "TD50", "setting": "mouse, strain Charles River CD1, females, in feed, site: liver, lesion: several types, types named in the paper, dosed 109 weeks, study length 109 weeks", "value": "176 mg/kg/day (inactive)"},
      {"measurement": "TD50", "setting": "mouse, strain Charles River CD1, females, in feed, site: lung, lesion: adenocarcinoma, dosed 109 weeks, study length 109 weeks", "value": "3140 mg/kg/day (inactive)"},
      {"measurement": "TD50", "setting": "mouse, strain Charles River CD1, females, in feed, site: lung, lesion: adenoma, dosed 109 weeks, study length 109 weeks", "value": "4500 mg/kg/day (inactive)"},
      {"measurement": "carcinogen call", "setting": "mouse, strain Charles River CD1, males, in feed, site: liver, lesion: several types, types named in the paper, dosed 101 weeks, study length 101 weeks", "value": "negative (inactive)"},
      {"measurement": "TD50", "setting": "mouse, strain Charles River CD1, males, in feed, site: lung, lesion: adenocarcinoma, dosed 101 weeks, study length 101 weeks", "value": "1020 mg/kg/day (inactive)"},
      {"measurement": "carcinogen call", "setting": "mouse, strain Charles River CD1, males, in feed, site: lung, lesion: adenoma, dosed 101 weeks, study length 101 weeks", "value": "negative (inactive)"},
      {"measurement": "TD50", "setting": "rat, strain Fischer 344, females, by gavage, site: any site (literature study), lesion: several types, types named in the paper, dosed 103 weeks, study length 104 weeks", "value": 456, "unit": "mg/kg/day"},
      {"measurement": "TD50", "setting": "rat, strain Fischer 344, females, by gavage, site: kidney, lesion: tubule adenoma, dosed 103 weeks, study length 104 weeks", "value": "1410 mg/kg/day and 930 mg/kg/day"},
      {"measurement": "TD50", "setting": "rat, strain Fischer 344, males, by gavage, site: any site (literature study), lesion: several types, types named in the paper, dosed 39 weeks, study length 104 weeks", "value": 210, "unit": "mg/kg/day"},
      {"measurement": "TD50", "setting": "rat, strain Fischer 344, males, by gavage, site: any site (literature study), lesion: several types, types named in the paper, dosed 65 weeks, study length 104 weeks", "value": 12.2, "unit": "mg/kg/day"},
      {"measurement": "TD50", "setting": "rat, strain Fischer 344, males, by gavage, site: any site (literature study), lesion: several types, types named in the paper, dosed 101 weeks, study length 104 weeks", "value": 12, "unit": "mg/kg/day"},
      {"measurement": "TD50", "setting": "rat, strain Fischer 344, males, by gavage, site: forestomach, lesion: squamous-cell papilloma, dosed 101 weeks, study length 104 weeks", "value": 142, "unit": "mg/kg/day"},
      {"measurement": "TD50", "setting": "rat, strain Fischer 344, males, by gavage, site: kidney, lesion: adenoma + tubule adenoma + tubule carcinoma, dosed 101 weeks, study length 104 weeks", "value": 13.9, "unit": "mg/kg/day"},
      {"measurement": "TD50", "setting": "rat, strain Fischer 344, males, by gavage, site: kidney, lesion: adenoma + tubule adenoma, dosed 101 weeks, study length 104 weeks", "value": "226 mg/kg/day and 13.9 mg/kg/day"},
      {"measurement": "TD50", "setting": "rat, strain Fischer 344, males, by gavage, site: kidney, lesion: tubule adenoma, dosed 65 weeks, study length 104 weeks", "value": 67.6, "unit": "mg/kg/day"},
      {"measurement": "TD50", "setting": "rat, strain Fischer 344, males, by gavage, site: kidney, lesion: tubule carcinoma, dosed 101 weeks, study length 104 weeks", "value": 151, "unit": "mg/kg/day"},
      {"measurement": "TD50", "setting": "rat, strain Fischer 344, males, by gavage, site: liver, lesion: hepatocellular adenoma + hepatoblastoma + hepatocellular carcinoma, dosed 65 weeks, study length 104 weeks", "value": 171, "unit": "mg/kg/day"},
      {"measurement": "TD50", "setting": "rat, strain Fischer 344, males, by gavage, site: pituitary gland, lesion: pars distalis adenoma, dosed 101 weeks, study length 104 weeks", "value": 19.7, "unit": "mg/kg/day"},
      {"measurement": "TD50", "setting": "rat, strain Fischer 344, males, by gavage, site: testis, lesion: interstitial-cell adenoma, dosed 39 weeks, study length 104 weeks", "value": 19.8, "unit": "mg/kg/day"},
      {"measurement": "TD50", "setting": "rat, strain Fischer 344, males, by gavage, site: testis, lesion: interstitial-cell adenoma, dosed 65 weeks, study length 104 weeks", "value": 8.22, "unit": "mg/kg/day"},
      {"measurement": "TD50", "setting": "rat, strain Fischer 344, males, by gavage, site: testis, lesion: interstitial-cell adenoma, dosed 101 weeks, study length 104 weeks", "value": 3.62, "unit": "mg/kg/day"},
      {"measurement": "TD50", "setting": "rat, strain Sprague-Dawley, females, in feed, site: liver, lesion: cholangiocarcinoma, dosed 110 weeks, study length 110 weeks", "value": 767, "unit": "mg/kg/day"},
      {"measurement": "TD50", "setting": "rat, strain Sprague-Dawley, females, in feed, site: liver, lesion: several types, types named in the paper, dosed 110 weeks, study length 110 weeks", "value": 1440, "unit": "mg/kg/day"},
      {"measurement": "TD50", "setting": "rat, strain Sprague-Dawley, males, in feed, site: liver, lesion: cholangiocarcinoma, dosed 104 weeks, study length 104 weeks", "value": 302, "unit": "mg/kg/day"},
      {"measurement": "TD50", "setting": "rat, strain Sprague-Dawley, males, in feed, site: liver, lesion: several types, types named in the paper, dosed 104 weeks, study length 104 weeks", "value": 365, "unit": "mg/kg/day"}
    ]}
  ]
}
